Measurements taken from patent US20150080468A1, “COMPOSITION AND METHOD FOR PROCESSING AND DELIVERING BIOAVAILABLE METHIONINE ANALOGS, DERIVATIVES, AND PRECURSORS, THEREOF” (QUALITY LIQUID FEEDS, priority 2013, published 2015).
Converted amounts (≈) assume the structure as drawn. “And” between values parts separate entries of the source, which are not always exact repeats. Equal entries are not always repeated.

Tests used:
[1] = Freeze/thaw study: viscosity, flowability and superfusion (Example 2); assay type: physicochemical
Description: A range of inclusion rates of the HMBi was used in the second example to further investigate the reduction or retardation of the superfusion property of the methionine analog (HMBi) added to a simple feed mill blend molasses liquid product.
Eight formulations were evaluated in regards to product positional stability, product pH, temperature, viscosity as affected by temperature and time. Viscosity measurements were being used to determine flow ability thus whether or not the product can be pumped without external heating. If HMBi is stored in conditions where its temperature drops below 54° F. (12.2° C.), it will solidify or undergo superfusion which will not allow it to be pumped. As you can see in FIG. 6, the HMBi is solid and will remain solid for several hours while thawing. During the thawing process, the HMBi will liquefy with a solid ball surrounded by liquid. This solid ball could potentially plug the inside fixture of a tank not allowing for flow to the pump. During the Example E2 study, it took about eight days of the 100% HMBi in sub-zero temperatures before it underwent superfusion. The container in FIG. 6 had to be shaken quite vigorously to get the HMBi to solidify. It was not moved until the late afternoon of day 7. By the morning of day 8, it was solid.
The containers used were clear PET plastic one quart capacity with wide mouth openings. All samples were placed in a sub-zero freezer until the samples were solid. As stated above, it took eight days for the 100% HMBi to undergo the superfusion process, thus all eight samples were frozen solid at about −9° F. (−22.8° C.) which is exactly what was needed for Example E2.
Once all samples were frozen, they were moved to a force-draft fume hood to allow warm air to be drawn over the jars to hasten thawing. When the samples were soft enough to get a metal tipped thermometer into the samples, temperatures were taken and recorded. Viscosity was measured once the samples thawed enough; temperatures were also taken at that time. The process of freezing and thawing was repeated once. These samples were not stirred or shaken except for the 100% HMBi sample to get it to undergo superfusion.
All formulated samples were mixed by the procedures and using the equipment described in Example E1. The same temperature probe, viscometer, and pH meter were also used.
Observations and data were collected when the samples had thawed enough to allow for viscosity and temperature measurements. The freezing and thawing was repeated once to confirm results. Laboratory room temperature was between 68 to 70° F. Any product having a viscosity over 5,000 cPs using a spindle sO5 will not flow nor be pumpable without added heat.

[2] = cited from earlier work
[3] = dairy cows; cited from earlier work
[4] = Sub-zero freezing and thawing of 3×, 4× and 100% HMBi after the 56 day study; assay type: physicochemical
Description: Each bar represents a data collection day: 1, 7, 14, 21, 29, 35, 42, 50, and 56 days. […] Mixing or re-circulation every other day will also maintain positional and product stability plus decrease product viscosity. Additionally, lower temperatures were tried for the 3× and 4× plus the HMBi straight or 100% additive after the 56 day study. […] However, the 100% HMBi was frozen solid. The liquid 100% HMBi freezes or solidifies at temperatures below 54° F. or 12° C. when the HMBi liquid is acted upon by an outside force such as mixing or pumping. This “Superfusion” property of the liquid 100% HMBi requires expensive heated storage equipment and plumbing to allow for use in a feed mill environment. After 72 hours in a deep freeze, the 3× and 4× also froze solid.

**Q.** For `CSCCC(O)C(=O)OC(C)C` (stereo not shown) [100% HMBi, isopropyl ester of 2-hydroxy-4-methylthiobutanoic acid], which Viscosity ([1]; Dec. 31, 2009, initial, 77.3-79.6 °F, spindle sO1/sO2) is on record?
**A.** 37 cPs

**Q.** And the Viscosity ([1]; Jan. 1, 2010, in freezer, -1.0 to 1.3 °F, spindle sO6 (100%: sO1))?
**A.** 174 cPs and 173.6 cPs

**Q.** What about the Viscosity ([1]; Jan. 2, 2010, in freezer, -3.9 to -0.2 °F, spindle sO6 (100%: sO1)) of the same molecule?
**A.** 157.6 cPs

**Q.** What about the “Physical state (no viscosity reading)” value ([1]; Jan. 14, 2010, 2:59-3:34 PM, thawing) of the same molecule?
**A.** solid

**Q.** What about the “Physical state (no viscosity reading)” value ([1]; Jan. 14, 2010, 2:59-3:34 PM, thawing, listed as 100%) of the same molecule?
**A.** SOLID

**Q.** And the “Physical state (no viscosity reading)” value ([1]; Jan. 14, 2010, 3:50-4:15 PM, thawing)?
**A.** still solid

**Q.** What about the “Physical state (no viscosity reading)” value ([1]; Jan. 14, 2010, 3:50-4:15 PM, thawing, listed as 100%) of the same molecule?
**A.** SOLID

**Q.** What about the “Physical state (no viscosity reading)” value ([1]; Jan. 14, 2010, 4:40-5:10 PM, thawing, 47.7 °F) of the same molecule?
**A.** semi-solid

**Q.** And the “Physical state (no viscosity reading)” value ([1]; Jan. 14, 2010, 4:40-5:10 PM, thawing, 47.7 °F, listed as 100%)?
**A.** SEMI-SOLID

**Q.** What about the “Physical state (no viscosity reading)” value ([1]; Jan. 15, 2010, 4:19-4:51 PM, second thaw, 45.0 °F) of the same molecule?
**A.** semi-solid

**Q.** What about the “Physical state (no viscosity reading)” value ([1]; Jan. 15, 2010, 4:19-4:51 PM, second thaw, 45.0 °F, listed as 100%) of the same molecule?
**A.** SEMI-SOLID

**Q.** And the “Physical state (no viscosity reading)” value ([1]; Jan. 15, 2010, 10:55-11:20 AM, second freeze)?
**A.** solid

**Q.** What about the “Physical state (no viscosity reading)” value ([1]; Jan. 15, 2010, 10:55-11:20 AM, second freeze, listed as 100%) of the same molecule?
**A.** SOLID

**Q.** And the “Physical state (no viscosity reading)” value ([1]; Jan. 15, 2010, 12:05-12:27, second thaw)?
**A.** semi-solid

**Q.** What about the “Physical state (no viscosity reading)” value ([1]; Jan. 15, 2010, 12:05-12:27, second thaw, listed as 100%) of the same molecule?
**A.** SOLID

**Q.** What about the “Time in sub-zero temperatures before superfusion” value ([1]; sub-zero freezer, shaken on day 7) of the same molecule?
**A.** about eight

**Q.** And the “Viscosity at 20° C.” value ([2]; 20 °C)?
**A.** 19.2 mPa/s

**Q.** And the “Crystallization (solidification, superfusion) temperature” value ([2]; ambient pressure)?
**A.** below 54 ° F.

**Q.** What about the pH ([2]; in a 1% aqueous solution) of the same molecule?
**A.** 3.6

**Q.** And the Solubility ([2]; water at 30° C.)?
**A.** 25.1 mg/mL (≈ 131 mM)

**Q.** What about the metabolizable methionine provided [3] of the same molecule?
**A.** 370 g/kg

**Q.** And the “rumen available HMB provided” value [3]?
**A.** 370 g/kg

**Q.** And the Flowability / state ([4]; less than 0° F. or -17.8° C. for 24 hours)?
**A.** frozen solid

**Q.** What about the “Further time until return to a liquid state” value ([4]; thawing after deep freeze) of the same molecule?
**A.** about 12 hours

**Q.** What about the “Temperature at return to a liquid state” value ([4]; thawing after deep freeze) of the same molecule?
**A.** approximately 56 ° F.
